This passage reports IC50 results from ChEMBL document CHEMBL4308862, “Discovery of a novel azetidine scaffold for colony stimulating factor-1 receptor (CSF-1R) Type II inhibitors by the use of docking models” (Bioorg Med Chem Lett, 2019).

SMILES strings stand for the structures.

The experiment deals with Macrophage colony-stimulating factor 1 receptor (Homo sapiens, UniProt P07333). Put plainly: Inhibition of human CSF1R tyrosine kinase domain (538 to 972 residues) using Poly(Glu, Tyr)-biotinylated peptide as substrate preincubated for 5 mins followed by substrate addition and measured after 10 mins by HTRF assay. On the technique in general: TR-FRET usually uses a lanthanide donor and a delayed reading to cut background.
Sequence of Macrophage colony-stimulating factor 1 receptor (P07333 whole entry, the tested form may be a part): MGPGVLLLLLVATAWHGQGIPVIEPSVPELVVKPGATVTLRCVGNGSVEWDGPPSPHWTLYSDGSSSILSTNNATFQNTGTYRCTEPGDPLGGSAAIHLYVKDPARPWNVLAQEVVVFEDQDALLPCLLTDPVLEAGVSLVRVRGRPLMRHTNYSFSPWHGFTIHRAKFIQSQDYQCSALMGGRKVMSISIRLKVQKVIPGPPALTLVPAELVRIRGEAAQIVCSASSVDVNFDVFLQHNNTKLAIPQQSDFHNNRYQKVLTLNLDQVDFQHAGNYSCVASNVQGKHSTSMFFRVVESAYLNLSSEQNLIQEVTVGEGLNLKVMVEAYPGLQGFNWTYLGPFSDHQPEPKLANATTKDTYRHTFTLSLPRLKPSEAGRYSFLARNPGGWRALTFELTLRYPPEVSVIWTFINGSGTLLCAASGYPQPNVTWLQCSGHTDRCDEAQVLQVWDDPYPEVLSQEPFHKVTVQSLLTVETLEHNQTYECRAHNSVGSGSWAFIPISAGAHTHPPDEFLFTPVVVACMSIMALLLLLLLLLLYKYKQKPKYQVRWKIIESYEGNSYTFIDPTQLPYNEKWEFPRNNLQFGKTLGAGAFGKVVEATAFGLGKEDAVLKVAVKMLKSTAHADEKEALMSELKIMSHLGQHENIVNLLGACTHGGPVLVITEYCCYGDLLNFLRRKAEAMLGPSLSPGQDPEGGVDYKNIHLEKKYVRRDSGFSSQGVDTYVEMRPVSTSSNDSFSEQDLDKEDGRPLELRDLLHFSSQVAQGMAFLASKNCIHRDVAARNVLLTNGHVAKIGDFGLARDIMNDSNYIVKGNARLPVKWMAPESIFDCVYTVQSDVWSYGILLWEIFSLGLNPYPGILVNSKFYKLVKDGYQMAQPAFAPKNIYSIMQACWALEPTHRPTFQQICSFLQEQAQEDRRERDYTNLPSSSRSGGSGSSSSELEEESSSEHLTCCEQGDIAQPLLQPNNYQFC

For orientation: IC50 means the concentration that inhibits the measured activity by half. Lower therefore signals higher potency. Compound `CCc1ccc(COc2ccc(C3CN(Cc4ccccn4)C3)cc2OC)cc1` showed an IC50 above 3 µM. In the case of `CCc1ccc(COc2ccc(C3CN(Cc4cccnc4)C3)cc2OC)cc1`, the IC50 was above 3 µM. Regarding `CCc1ccc(COc2ccc(C3CN(c4ccccn4)C3)cc2OC)cc1`, the IC50 is above 3 µM.
